The conditions of the data set: bovine, in vivo, im, 5 mg/kg.

Counter-ions that a name gives are not always drawn.

Procedure: The terminal half-lives (t1/2) after single injection (i.m.) of 5 mg of betaine VI (n=2) per kg of body weight for cattle are summarized in Table 1 for compounds according to the invention. […] The known salts sulfate and dihydroiodide from DE 3 706 020 are used as a standard.

As for `CO/N=C(\C(=O)N[C@@H]1C(=O)N2C(C(=O)[O-])=C(C[n+]3cccc4c3CCCC4)CS[C@H]12)c1csc(N)n1` [Example 17], the “Terminal half-lives (t1/2)” value is 17.8 h.

As for `CO/N=C(\C(=O)N[C@@H]1C(=O)N2C(C(=O)[O-])=C(C[n+]3cccc4c3CCCC4)CS[C@H]12)c1csc(N)n1` [Example 18], the “Terminal half-lives (t1/2)” value was determined as 13.00 h. For the compound `CO/N=C(\C(=O)N[C@@H]1C(=O)N2C(C(=O)[O-])=C(C[n+]3cccc4c3CCCC4)CS[C@H]12)c1csc(N)n1` [Example 11, cefquinome-2,4-dihydroxybenzoate], the “Terminal half-lives (t1/2)” value is reported as 16.20 h. Then `CO/N=C(\C(=O)N[C@@H]1C(=O)N2C(C(=O)[O-])=C(C[n+]3cccc4c3CCCC4)CS[C@H]12)c1csc(N)n1` [Example 23], with 12.70 h; and `CO/N=C(\C(=O)N[C@@H]1C(=O)N2C(C(=O)[O-])=C(C[n+]3cccc4c3CCCC4)CS[C@H]12)c1csc(N)n1` [Example 22], with 8.77 h.

Consider `CO/N=C(\C(=O)N[C@@H]1C(=O)N2C(C(=O)[O-])=C(C[n+]3cccc4c3CCCC4)CS[C@H]12)c1csc(N)n1` [Example 21], for which the “Terminal half-lives (t1/2)” value was determined as 9.96 h. For `CO/N=C(\C(=O)N[C@@H]1C(=O)N2C(C(=O)[O-])=C(C[n+]3cccc4c3CCCC4)CS[C@H]12)c1csc(N)n1` [Example 6] the value was 5.87 h. Turning to `CO/N=C(\C(=O)N[C@@H]1C(=O)N2C(C(=O)[O-])=C(C[n+]3cccc4c3CCCC4)CS[C@H]12)c1csc(N)n1` [Dihydroiodide, reference compound], the “Terminal half-lives (t1/2)” value is on record as 4.19 h. For `CO/N=C(\C(=O)N[C@@H]1C(=O)N2C(C(=O)[O-])=C(C[n+]3cccc4c3CCCC4)CS[C@H]12)c1csc(N)n1` [Example 13] the value was 9.21 h. Then `CO/N=C(\C(=O)N[C@@H]1C(=O)N2C(C(=O)[O-])=C(C[n+]3cccc4c3CCCC4)CS[C@H]12)c1csc(N)n1` [Example 20], with 9.39 h. Take `CO/N=C(\C(=O)N[C@@H]1C(=O)N2C(C(=O)[O-])=C(C[n+]3cccc4c3CCCC4)CS[C@H]12)c1csc(N)n1` [Example 12]: the “Terminal half-lives (t1/2)” value is 15.20 h.

For the compound `CO/N=C(\C(=O)N[C@@H]1C(=O)N2C(C(=O)[O-])=C(C[n+]3cccc4c3CCCC4)CS[C@H]12)c1csc(N)n1` [Example 2], the “Terminal half-lives (t1/2)” value was determined as 18.8 h. Then `CO/N=C(\C(=O)N[C@@H]1C(=O)N2C(C(=O)[O-])=C(C[n+]3cccc4c3CCCC4)CS[C@H]12)c1csc(N)n1` [Sulfate, cefquinome sulfate, reference compound], with 2.15 h; and `CO/N=C(\C(=O)N[C@@H]1C(=O)N2C(C(=O)[O-])=C(C[n+]3cccc4c3CCCC4)CS[C@H]12)c1csc(N)n1` [Example 19], with 7.07 h; and `CO/N=C(\C(=O)N[C@@H]1C(=O)N2C(C(=O)[O-])=C(C[n+]3cccc4c3CCCC4)CS[C@H]12)c1csc(N)n1` [Example 16], with 9.16 h. Then `CO/N=C(\C(=O)N[C@@H]1C(=O)N2C(C(=O)[O-])=C(C[n+]3cccc4c3CCCC4)CS[C@H]12)c1csc(N)n1` [Example 1, Cefquinome-6-hydroxy-1-naphthoate], with 9.20 h; and `CO/N=C(\C(=O)N[C@@H]1C(=O)N2C(C(=O)[O-])=C(C[n+]3cccc4c3CCCC4)CS[C@H]12)c1csc(N)n1` [Example 9], with 15.6 h. For `CO/N=C(\C(=O)N[C@@H]1C(=O)N2C(C(=O)[O-])=C(C[n+]3cccc4c3CCCC4)CS[C@H]12)c1csc(N)n1` [Example 15] the value was 11.1 h.
